The values that follow come from US8119692B2 (priority 2007, dated 2012).

This assay has as its target Lethal factor protease (Bacillus anthracis, UniProt P15917). Nature of the assay: biochemical. Particulars: LF (FRET) Ki^app.

Chain of Lethal factor protease (P15917 34-809 limits assumed): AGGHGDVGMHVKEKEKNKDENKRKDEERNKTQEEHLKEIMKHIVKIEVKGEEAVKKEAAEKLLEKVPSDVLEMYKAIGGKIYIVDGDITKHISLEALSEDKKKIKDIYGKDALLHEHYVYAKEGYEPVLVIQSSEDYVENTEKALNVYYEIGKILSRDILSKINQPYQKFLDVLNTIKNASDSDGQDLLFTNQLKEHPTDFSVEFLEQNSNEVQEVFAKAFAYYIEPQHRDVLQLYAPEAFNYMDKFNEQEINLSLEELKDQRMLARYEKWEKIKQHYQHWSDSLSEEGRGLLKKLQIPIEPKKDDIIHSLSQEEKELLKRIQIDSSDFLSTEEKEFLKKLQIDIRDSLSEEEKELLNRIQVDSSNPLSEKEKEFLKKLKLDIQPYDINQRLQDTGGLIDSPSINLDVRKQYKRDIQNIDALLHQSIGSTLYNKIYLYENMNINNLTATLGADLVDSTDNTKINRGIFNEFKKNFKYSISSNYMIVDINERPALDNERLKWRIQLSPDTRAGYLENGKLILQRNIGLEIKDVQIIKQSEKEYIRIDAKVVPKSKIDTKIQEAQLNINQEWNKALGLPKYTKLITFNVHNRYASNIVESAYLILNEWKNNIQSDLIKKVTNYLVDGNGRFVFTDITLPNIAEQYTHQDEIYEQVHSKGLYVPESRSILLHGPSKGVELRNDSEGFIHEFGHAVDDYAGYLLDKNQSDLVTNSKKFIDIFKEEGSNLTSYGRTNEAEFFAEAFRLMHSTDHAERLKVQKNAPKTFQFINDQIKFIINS

`CO[C@H](C[C@H](CCN1CCc2ccccc2C1)C(=O)NO)c1ccc(F)cc1` [Compound 167891, (2S,4R)-2-(2-(3,4-dihydroisoquinolin-2(1H)-yl)ethyl)-4-(4-fluorophenyl)-N-hydroxy-4-methoxybutanamide] came in with a Ki of 0.92 µM.
The figure for `CCN(CC)CC[C@@H](C[C@@H](OC)c1ccc(F)cc1)C(=O)NO` [Compound 167995, (2S,4R)-2-(2-(diethylamino)ethyl)-4-(4-fluorophenyl)-N-hydroxy-4-methoxybutanamide] is 2.2 µM.
As to `CO[C@H](C[C@H](CCN1CCC(c2ccccc2)CC1)C(=O)NO)c1ccc(F)cc1` [Compound 167987, (2S,4R)-4-(4-fluorophenyl)-N-hydroxy-4-methoxy-2-(2-(4-phenylpiperidin-1-yl)ethyl)butanamide], the Ki came out at 0.76 µM.
In the case of `C=CC[C@H](C[C@@H](OC)c1ccc(F)c(C)c1)C(=O)NO` [Compound 167672, (2R)-2-((2R)-2-(4-fluoro-3-methylphenyl)-2-methoxyethyl)-N-hydroxypent-4-enamide] it was 42 µM; in that of `CO[C@@H](CCC(=O)NO)c1ccc(F)cc1` [Compound 167205, (S)-4-(4-fluorophenyl)-N-hydroxy-4-methoxybutanamide], 225 µM; in that of `CO[C@H](C[C@H](CCN(C)Cc1cccc(Br)c1)C(=O)NO)c1ccc(F)cc1` [Compound 168001, (2S,4R)-2-(2-((3-bromobenzyl)(methyl)amino)ethyl)-4-(4-fluorophenyl)-N-hydroxy-4-methoxybutanamide], 1.2 µM.
In the case of `CCC[C@H](C[C@@H](OC)c1ccc(F)c(C)c1)C(=O)NO` [Compound 167674, (2R)-2-((2R)-2-(4-fluoro-3-methylphenyl)-2-methoxyethyl)-N-hydroxypentanamide] it was 24 µM; in that of `COC(CCC(=O)NO)c1ccc(C)cc1C` (stereo not drawn) [Compound 167541, 4-(2,4-dimethylphenyl)-N-hydroxy-4-methoxybutanamide], 134 µM.
On to `CO[C@H](C[C@H](CCN(C)Cc1ccccc1)C(=O)NO)c1ccc(F)cc1` [Compound 167785, (2S,4R)-2-(2-(benzyl(methyl)amino)ethyl)-4-(4-fluorophenyl)-N-hydroxy-4-methoxybutanamide], for which the Ki stood at 2 µM.
The figure for `CO[C@H](C[C@H](CCCCNCc1cccs1)C(=O)NO)c1ccc(F)cc1` [Compound 168223] is 0.21 µM.
In turn, `CO[C@H](C[C@H](CCN(Cc1ccccc1)C(C)C)C(=O)NO)c1ccc(F)cc1` [Compound 167784, (2S,4R)-2-(2-(benzyl(isopropyl)amino)ethyl)-4-(4-fluorophenyl)-N-hydroxy-4-methoxybutanamide] gave a Ki of 14 µM.
In turn, `CO[C@H](C[C@H](CCN(C)C)C(=O)NO)c1ccc(F)cc1` [Compound 167954, (2S,4R)-2-(2-(dimethylamino)ethyl)-4-(4-fluorophenyl)-N-hydroxy-4-methoxybutanamide] returned a Ki of 0.97 µM.
For the compound `CO[C@H](C[C@H](CCN(C)c1cccc(-c2ccc(F)c(C)c2)c1)C(=O)NO)c1ccc(F)cc1` [Compound 168007, (2S,4R)-2-(2-((4′-fluoro-3′-methylbiphenyl-3-yl)(methyl)amino)ethyl)-4-(4-fluorophenyl)-N-hydroxy-4-methoxybutanamide], the Ki came out at 19.5 µM.
As to `COC(CCC(=O)NO)c1ccc(-c2ccccc2)cc1` (stereo not drawn) [Compound 167506, 4-(biphenyl-4-yl)-N-hydroxy-4-methoxybutanamide], the Ki worked out at 85.1 µM.
As for `CCCC[C@H](C[C@@H](OC)c1ccc(F)cc1)C(=O)NO` [Compound 167353, (2R)-2-((2R)-2-(4-fluorophenyl)-2-methoxyethyl)-N-hydroxyhexanamide], the Ki came out at 5.8 µM.
In the case of `CO[C@H](C[C@H](CCN1CCN(Cc2ccc(F)c(C)c2)CC1)C(=O)NO)c1ccc(F)cc1` [Compound 167960, (2S,4R)-2-(2-(4-(4-fluoro-3-methylbenzyl)piperazin-1-yl)ethyl)-4-(4-fluorophenyl)-N-hydroxy-4-methoxybutanamide] it was 0.97 µM; in that of `COC(CC(C)C(=O)NO)c1ccc(F)cc1` (stereo not drawn) [Compound 167288, 4-(4-Fluoro-phenyl)-N-hydroxy-4-methoxy-2-methyl-butyramide], 3.1 µM; in that of `CO[C@H](C[C@H](CCN(C)Cc1ccc(Br)cc1)C(=O)NO)c1ccc(F)cc1` [Compound 168015], 2.2 µM.
The figure for `CO[C@H](C[C@H](C)C(=O)NO)c1ccc(F)cc1` [Compound 167297, (2S,4R)-4-(4-fluorophenyl)-N-hydroxy-4-methoxy-2-methylbutanamide] is 2.3 µM; for `CO[C@H](C[C@H](CCCCNCCc1ccc(F)cc1)C(=O)NO)c1ccc(F)cc1` [Compound 168221] it is 0.28 µM.
Compound `CO[C@@H](C[C@@H](CCCc1ccccc1)C(=O)NO)c1ccc(F)cc1` [Compound 167341, (2R)-2-((2S)-2-(4-fluorophenyl)-2-methoxyethyl)-N-hydroxy-5-phenylpentanamide] came in with a Ki of 18 µM.
The compound `CO[C@H](C[C@H](CCN(C)c1ccc(-c2ccc(F)c(C)c2)cc1)C(=O)NO)c1ccc(F)cc1` [Compound 168038, (2S,4R)-2-(2-((4′-fluoro-3′-methylbiphenyl-4-yl)(methyl)amino)ethyl)-4-(4-fluorophenyl)-N-hydroxy-4-methoxybutanamide] yielded a Ki of 0.91 µM.
As to `COc1cccc(C(CCC(=O)NO)OC)c1` (stereo not drawn) [Compound 167458, N-hydroxy-4-methoxy-4-(3-methoxyphenyl)butanamide], the Ki was found to be 276 µM.
With `CCCC[C@@H](C[C@@H](OC)c1ccc(F)cc1)C(=O)NO` [Compound 167336, (S)-2-((R)-2-(4-fluorophenyl)-2-methoxyethyl)-N-hydroxyhexanamide], the Ki turned out to be 1.9 µM.
The figure for `COC(CCC(=O)NO)c1ccc(C)c(F)c1` (stereo not drawn) [Compound 167463, 4-(3-fluoro-4-methylphenyl)-N-hydroxy-4-methoxybutanamide] is 65.6 µM.
The compound `CO[C@H](C[C@H](CCN1CCC(Cc2ccccc2)CC1)C(=O)NO)c1ccc(F)cc1` [Compound 167940, (2S,4R)-2-(2-(4-benzylpiperidin-1-yl)ethyl)-4-(4-fluorophenyl)-N-hydroxy-4-methoxybutanamide] came in with a Ki of 0.4 µM.
The figure for `CO[C@H](C[C@H](CCN1CCN(CCCc2ccccc2)CC1)C(=O)NO)c1ccc(F)cc1` [Compound 167959, (2S,4R)-4-(4-fluorophenyl)-N-hydroxy-4-methoxy-2-(2-(4-(3-phenylpropyl)piperazin-1-yl)ethyl)butanamide] is 1 µM; for `CO[C@H](C[C@H](CCCCNCc1ccc(C)o1)C(=O)NO)c1ccc(F)cc1` [Compound 168228, (S)-2-((R)-2-(4-fluorophenyl)-2-methoxyethyl)-N-hydroxy-6-((5-methylfuran-2-yl)methylamino)hexanamide] it is 2.8 µM; for `CO[C@H](C[C@H](CCN1CCC[C@@H](CO)C1)C(=O)NO)c1ccc(F)cc1` [Compound 168059, (2S,4R)-4-(4-fluorophenyl)-N-hydroxy-2-(2-((R)-3-(hydroxymethyl)piperidin-1-yl)ethyl)-4-methoxybutanamide] it is 0.6 µM.
For `COC(CCC(=O)NO)c1ccc(C(F)(F)F)cc1` (stereo not drawn) [Compound 167511, N-hydroxy-4-methoxy-4-(4-(trifluoromethyl)phenyl)butanamide], the Ki worked out at 240 µM.
The figure for `COC(CC(CCc1ccccc1)C(=O)NO)c1ccc(F)cc1` (stereo not drawn) [Compound 167308, 4-(4-fluorophenyl)-N-hydroxy-4-methoxy-2-phenethylbutanamide] is 2.4 µM.
In turn, `COC(CCC(=O)NO)c1ccccc1C` (stereo not drawn) [Compound 167540, N-hydroxy-4-methoxy-4-o-tolylbutanamide] returned a Ki of 152 µM.
The figure for `O=C(CCC(O)c1ccc(F)cc1)NO` (racemic) [Compound 166976, 4-(4-fluorophenyl)-N,4-dihydroxybutanamide] is 138 µM; for `CO[C@H](C[C@H](CCN1CCCC1)C(=O)NO)c1ccc(F)cc1` [Compound 167923, (2S,4R)-4-(4-fluorophenyl)-N-hydroxy-4-methoxy-2-(2-(pyrrolidin-1-yl)ethyl)butanamide] it is 0.97 µM.
The figure for `O=C(CCC(OCc1ccccc1)c1ccc(F)cc1)NO` (racemic) [Compound 167151, 4-(benzyloxy)-4-(4-fluorophenyl)-N-hydroxybutanamide] is 130 µM; for `CO[C@H](C[C@H](CCCCNCc1ccc(F)c(C)c1)C(=O)NO)c1ccc(F)cc1` [Compound 168136, (S)-6-(4-fluoro-3-methylbenzylamino)-2-((R)-2-(4-fluorophenyl)-2-methoxyethyl)-N-hydroxyhexanamide] it is 0.19 µM.
In the case of `CCCC[C@H](C[C@H](OC)c1ccc(F)cc1)C(=O)NO` [Compound 167389, (2R)-2-((2S)-2-(4-fluorophenyl)-2-methoxyethyl)-N-hydroxyhexanamide] it was 75.6 µM; in that of `CO[C@H](C[C@H](CCN1CCOCC1)C(=O)NO)c1ccc(F)cc1` [Compound 167829, (2S,4R)-4-(4-fluorophenyl)-N-hydroxy-4-methoxy-2-(2-morpholinoethyl)butanamide], 5.7 µM.
Take `CO[C@H](C[C@H](CCN1CCCCCCC1)C(=O)NO)c1ccc(F)cc1` [Compound 167912, (2S,4R)-2-(2-(azocan-1-yl)ethyl)-4-(4-fluorophenyl)-N-hydroxy-4-methoxybutanamide]: the Ki turned out to be 284 µM.
The figure for `C=CC[C@@H](C[C@@H](OC)c1ccc(F)c(C)c1)C(=O)NO` [Compound 167673, (S)-2-((R)-2-(4-Fluoro-3-methylphenyl)-2-methoxyethyl)-N-hydroxypent-4-enamide] is 6.6 µM.
In the case of `COc1ccc(C(CCC(=O)NO)OC)cc1` (stereo not drawn) [Compound 167457, N-hydroxy-4-methoxy-4-(4-methoxyphenyl)butanamide] it was 193 µM; in that of `CO[C@H](C[C@H](CCCc1ccccc1)C(=O)NO)c1ccc(F)cc1` [Compound 167337, (2S)-2-((2R)-2-(4-fluorophenyl)-2-methoxyethyl)-N-hydroxy-5-phenylpentanamide], 7.8 µM.
